The text below walks through data of patent publication US20100204265A1 (priority 2009, published 2010).

Data set [1] deals with ET (Huh-lucubineo-ET) cell line harboring I389luc-ubi-neo/NS3-3′/ET HCV replicon. The experiment in a line: Replicon assay (HCV replicon, luciferase readout). The format is cell-based. The following applies: Hepatitis C virus. In a few lines: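 Compounds at 10-point 2-fold dilutions (overall 0.1 nM to […], 0.5% DMSO) were applied to ET cells carrying a luciferase-neo HCV replicon, seeded a day earlier. After 48-72 hours, luciferase-based % inhibition was fitted with a Hill equation for EC50, and parallel WST-1 readings gave TC50.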

The conditions of data set [2]: patients treated at currently recommended doses; cited from earlier work.

Regarding `CN(C)C(=O)[C@H]1CCCN1C(=O)Cc1cn2cc(-c3ccoc3)cc(C(F)(F)F)c2n1` [Compound 314, 1-[2-(6-Furan-3-yl-8-trifluoromethyl-imidazo[1,2-a]pyridin-2-yl)-acetyl]-pyrrolidine-2-carboxylic acid dimethylamide], in data set [1], the EC50 is more than 50 µM. The same measure, in the same setting: the same measure for `CS(=O)(=O)NC1CCN(C(=O)c2nc3c(C(F)(F)F)cc(-c4ccoc4)cn3c2Cl)CC1` [Compound 322, N-[1-(3-Chloro-6-furan-3-yl-8-trifluoromethyl-imidazo[1,2-a]pyridine-2-carbonyl)-piperidin-4-yl]-methanesulfonamide]: 0.266 µM.

Turning to `CC(=O)NC1CCN(C(=O)c2nc3c(C(F)(F)F)cc(-c4ccoc4)cn3c2Cl)CC1` [Compound 323, N-[1-(3-Chloro-6-furan-3-yl-8-trifluoromethyl-imidazo[1,2-a]pyridine-2-carbonyl)-piperidin-4-yl]-acetamide], it took 10.7 µM to reach a half-maximal effect in data set [1] (EC50). The same measure, in the same setting: the same measure for `O=C1CCCC2(CCN(C(=O)c3nc4c(C(F)(F)F)cc(-c5ccoc5)cn4c3Cl)CC2)N1` [Compound 324, 9-(3-Chloro-6-furan-3-yl-8-trifluoromethyl-imidazo[1,2-a]pyridine-2-carbonyl)-1,9-diaza-spiro[5.5]undecan-2-one]: more than 50 µM; for `CC(=O)N1CCCN(C(=O)c2nc3c(C(F)(F)F)cc(-c4ccoc4)cn3c2Cl)CC1` [Compound 325, 1-[4-(3-Chloro-6-furan-3-yl-8-trifluoromethyl-imidazo[1,2-a]pyridine-2-carbonyl)-[1,4]diazepan-1-yl]-ethanone]: more than 50 µM; for `CS(=O)(=O)N1CCCN(C(=O)c2nc3c(C(F)(F)F)cc(-c4ccoc4)cn3c2Cl)CC1` [Compound 326, (3-Chloro-6-furan-3-yl-8-trifluoromethyl-imidazo[1,2-a]pyridin-2-yl)-(4-methanesulfonyl-[1,4]diazepan-1-yl)-methanone]: 11.4 µM.

In data set [1], `O=C1NC(=O)C2(CCN(C(=O)c3nc4c(C(F)(F)F)cc(-c5ccoc5)cn4c3Cl)CC2)N1` [Compound 330, 8-(3-Chloro-6-furan-3-yl-8-trifluoromethyl-imidazo[1,2-a]pyridine-2-carbonyl)-1,3,8-triaza-spiro[4.5]decane-2,4-dione] showed an EC50 of more than 50 µM. Still for that read-out and setting: the same measure for `COC(=O)N1CCCN(C(=O)c2nc3c(C(F)(F)F)cc(-c4ccoc4)cn3c2Cl)CC1` [Compound 331, 4-(3-Chloro-6-furan-3-yl-8-trifluoromethyl-imidazo[1,2-a]pyridine-2-carbonyl)-[1,4]diazepane-1-carboxylic acid methyl ester]: 26.8 µM. As for `NC(=O)c1ncn([C@@H]2O[C@H](CO)[C@@H](O)[C@H]2O)n1` [Ribavirin, 1-P-D-ribofuranosyl-1H-1,2,-4-triazole-3-carboxamide], the “significant hemolysis, share of patients” value in data set [2] is given as 10-20%.
